Data published in patent US20250228832A1, “METHODS FOR TREATING DISORDERS AMELIORATED BY MUSCARINIC RECEPTOR ACTIVATION” (KARUNA THERAPEUTICS, INC., priority 2022, published 2025).
Like-named read-outs stand apart in the source and are kept apart here. Blank lines part the entries; values can stand above or below the compound they belong to.

Tests used:
human M1 receptor = biological target: T1, human M1 receptor (Homo sapiens, UniProt P11229); assay: HTRF IP-One curve shift assay, M1; format: cell-based
T1 construct: expressed in transfected cells
T1 sequence (P11229 1-460): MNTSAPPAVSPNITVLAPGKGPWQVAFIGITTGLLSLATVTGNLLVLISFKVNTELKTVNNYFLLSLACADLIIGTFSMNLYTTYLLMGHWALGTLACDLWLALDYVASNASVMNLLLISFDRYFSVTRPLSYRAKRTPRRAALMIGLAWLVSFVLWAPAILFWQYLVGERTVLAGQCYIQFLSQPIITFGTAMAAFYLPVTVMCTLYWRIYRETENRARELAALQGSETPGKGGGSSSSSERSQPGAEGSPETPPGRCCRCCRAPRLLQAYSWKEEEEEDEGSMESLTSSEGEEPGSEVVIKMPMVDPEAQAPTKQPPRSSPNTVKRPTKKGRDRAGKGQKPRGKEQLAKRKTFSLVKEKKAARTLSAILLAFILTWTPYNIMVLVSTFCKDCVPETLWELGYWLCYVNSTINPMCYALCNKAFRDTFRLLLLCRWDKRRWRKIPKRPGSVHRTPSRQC
Description: (§1) HTRF IP-One assays were performed using frozen cell aliquots prepared from CHO-K1 cell lines stably expressing human M1, M3, or M5 receptors. Cells were frozen following typical cell freezing protocols. […] Dissociated cells were quenched in full media and collected by centrifugation at 290×g for 5 min. […] 1 mL aliquots of cells were dispensed into cryovial tubes and frozen in a controlled rate cryo-freezer container at −80° C. Cells were stored at −80° C. (or in liquid nitrogen if stored for at least six months) until the day of the assay.
(§2) On the day before the assay, frozen cells were rapidly thawed in a 37° C. water bath, brought up in 20 mL of full media, and collected via centrifugation at 290×g for 5 min. […] Next, […] of cells (10,000 cells/well) were dispensed into 384-well coming plates in triplicate. Cells were incubated overnight in a 37° C., 5% CO2 cell incubator.
(§3) Then, 2 μL of test compounds were added to the cells and incubated for 10 min at 37° C. in a 5% CO2 cell incubator. Next, 2 μL of diluted agonists serially diluted in assay buffer at 7× final assay concentration was added to assay plates. Finally, assay plates were incubated for two hours at 37° C. in a 5% CO2 cell incubator.
(§4) Six μL of IP-1 detection reagents (IP-One Gq HTRF kit, Cisbio Cat #62IPAPEJ) were dispensed to the cells. First, the plates were incubated for two hours at room temperature (IP-One detection reagents were made according to Cisbio protocol). Then, plates were read on an Envision plate reader following the Cisbio guidelines.
(§5) Raw data for all assays was transmitted directly from plate readers into the Beacon database for processing. All assay plates contained positive and negative control wells for data normalization and scaling. […] All control wells contained DMSO at a final assay concentration that matched the test compound wells.
(§6) Counts from the standard curve wells were used to generate a sigmoidal standard curve, which was used to transform the raw counts from each well on the plate (scaling control wells and compound wells) into a pmol/well IP1 value.

human M3 receptor = biological target: T2, human M3 receptor (Homo sapiens, UniProt P20309); assay: HTRF IP-One curve shift assay, M3; format: cell-based
T2 construct: expressed in transfected cells
Description: as §1, §2, §3, §4, §5, §6

[1] = Emraclidine concentration 41.2 nM, read-out: Emax
[2] = Emraclidine concentration 123 nM, read-out: Emax
[3] = Emraclidine concentration 370 nM
[4] = Emraclidine concentration 1110 nM, read-out: Emax
[5] = Emraclidine concentration 3330 nM, read-out: Emax
[6] = MK-4710 concentration 41.2 nM, read-out: Emax
[7] = MK-4710 concentration 123 nM, read-out: Emax
[8] = MK-4710 concentration 1110 nM, read-out: Emax
[9] = MK-4710 concentration 3330 nM, read-out: Emax

T2 sequence (P20309 whole entry): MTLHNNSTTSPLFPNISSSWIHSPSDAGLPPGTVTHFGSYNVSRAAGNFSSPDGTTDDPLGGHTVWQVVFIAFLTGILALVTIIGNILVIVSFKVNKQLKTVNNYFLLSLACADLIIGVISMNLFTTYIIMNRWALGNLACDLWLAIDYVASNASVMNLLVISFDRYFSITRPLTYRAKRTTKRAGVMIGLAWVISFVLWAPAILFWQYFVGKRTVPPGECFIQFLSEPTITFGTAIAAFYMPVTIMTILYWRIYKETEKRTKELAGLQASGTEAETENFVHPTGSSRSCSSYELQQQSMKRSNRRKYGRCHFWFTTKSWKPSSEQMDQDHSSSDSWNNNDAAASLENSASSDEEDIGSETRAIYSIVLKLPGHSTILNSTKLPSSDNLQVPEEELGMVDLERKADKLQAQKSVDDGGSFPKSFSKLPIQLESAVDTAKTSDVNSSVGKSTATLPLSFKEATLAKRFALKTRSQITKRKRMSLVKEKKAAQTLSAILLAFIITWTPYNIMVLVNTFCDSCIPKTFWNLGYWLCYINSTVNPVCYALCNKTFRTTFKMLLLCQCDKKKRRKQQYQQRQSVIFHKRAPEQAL

EC50 (human M1 receptor; Emraclidine concentration 0 nM): 10.1 nM
Emax (human M1 receptor; Emraclidine concentration 0 nM): 77.8%
Emax (human M1 receptor; [1]): 83.1%
Emax (human M1 receptor; [2]): 85.4%
Emax at […] (human M1 receptor; [3]): 88.4%
Emax (human M1 receptor; [4]): 85.2%
Emax (human M1 receptor; [5]): 87.8%
Emax at […] (human M1 receptor; Emraclidine concentration […]): 83.9%
α (cooperativity, affinity shift) (human M1 receptor; M4 PAM Emraclidine): 3.2
β (cooperativity, efficacy shift) (human M1 receptor; M4 PAM Emraclidine): 0.8
τ (agonist pharmacology) (human M1 receptor; M4 PAM Emraclidine): 0.0
α (cooperativity, affinity shift) (human M1 receptor; M4 PAM MK-4710): 4.1
β (cooperativity, efficacy shift) (human M1 receptor; M4 PAM MK-4710): 0.6
τ (agonist pharmacology) (human M1 receptor; M4 PAM MK-4710): 0.0
EC50 (human M1 receptor; MK-4710 concentration 0 nM): 8.7 nM
Emax (human M1 receptor; MK-4710 concentration 0 nM): 83.7%
EC50 (human M1 receptor; MK-4710 concentration 41.2 nM): 7.6 nM
Emax (human M1 receptor; [6]): 82.7%
EC50 (human M1 receptor; MK-4710 concentration 123 nM): 8.3 nM
Emax (human M1 receptor; [7]): 79.9%
EC50 (human M1 receptor; MK-4710 concentration 370 nM): 6.5 nM
Emax at […] (human M1 receptor; MK-4710 concentration 370 nM): 78.3%
EC50 (human M1 receptor; MK-4710 concentration 1110 nM): 6.8 nM
Emax (human M1 receptor; [8]): 76.8%
EC50 (human M1 receptor; MK-4710 concentration 3330 nM): 5.3 nM
Emax (human M1 receptor; [9]): 76.7%
EC50 (human M1 receptor; MK-4710 concentration […]): 8.8 nM
Emax at […] (human M1 receptor; MK-4710 concentration […]): 77.6%
EC50 (human M3 receptor; Emraclidine concentration 0 nM): 224 nM
Emax (human M3 receptor; Emraclidine concentration 0 nM): 63.5%
Emax (human M3 receptor; [1]): 63.9%
Emax (human M3 receptor; [2]): 68.2%
Emax at […] (human M3 receptor; [3]): 73.4%
Emax (human M3 receptor; [4]): 64.6%
Emax (human M3 receptor; [5]): 73%
Emax at […] (human M3 receptor; Emraclidine concentration […]): 71.1%
α (cooperativity, affinity shift) (human M3 receptor; M4 PAM Emraclidine): 7.6
β (cooperativity, efficacy shift) (human M3 receptor; M4 PAM Emraclidine): 1.1
τ (agonist pharmacology) (human M3 receptor; M4 PAM Emraclidine): 0.0
α (cooperativity, affinity shift) (human M3 receptor; M4 PAM MK-4710): 6.2
β (cooperativity, efficacy shift) (human M3 receptor; M4 PAM MK-4710): 1.6
τ (agonist pharmacology) (human M3 receptor; M4 PAM MK-4710): 0.0
EC50 (human M3 receptor; MK-4710 concentration 0 nM): 45 nM
Emax (human M3 receptor; MK-4710 concentration 0 nM): 80.8%
Emax (human M3 receptor; [6]): 75.4%
Emax (human M3 receptor; [7]): 66.6%
Emax at […] (human M3 receptor; MK-4710 concentration 370 nM): 76.7%
Emax (human M3 receptor; [8]): 74.3%
Emax (human M3 receptor; [9]): 86%
Emax at […] (human M3 receptor; MK-4710 concentration […]): 72.7%
Structure (SMILES): CCCCCCCOc1nsnc1C1=CCCCN1C [KTX-593, 3-(heptyloxy)-4-(1-methyl-1,4,5,6-tetrahydropyridin-2-yl)-1,2,5-thiadiazole]

EC50 (human M1 receptor; Emraclidine concentration 0 nM): 1190 nM
Emax (human M1 receptor; Emraclidine concentration 0 nM): 73.6%
Emax (human M1 receptor; [1]): 81.4%
Emax (human M1 receptor; [2]): 90.4%
Emax at […] (human M1 receptor; [3]): 95.1%
Emax (human M1 receptor; [4]): 100%
Emax (human M1 receptor; [5]): 103%
Emax at […] (human M1 receptor; Emraclidine concentration […]): 73.2%
α (cooperativity, affinity shift) (human M1 receptor; M4 PAM Emraclidine): 1.0
β (cooperativity, efficacy shift) (human M1 receptor; M4 PAM Emraclidine): 1.2
τ (agonist pharmacology) (human M1 receptor; M4 PAM Emraclidine): 0.0
α (cooperativity, affinity shift) (human M1 receptor; M4 PAM MK-4710): 3.0
β (cooperativity, efficacy shift) (human M1 receptor; M4 PAM MK-4710): 0.5
τ (agonist pharmacology) (human M1 receptor; M4 PAM MK-4710): 0.0
EC50 (human M1 receptor; MK-4710 concentration 0 nM): 1750 nM
Emax (human M1 receptor; MK-4710 concentration 0 nM): 86.1%
Emax (human M1 receptor; [6]): 102%
Emax (human M1 receptor; [7]): 97.1%
Emax at […] (human M1 receptor; MK-4710 concentration 370 nM): 92.3%
Emax (human M1 receptor; [8]): 83.6%
Emax (human M1 receptor; [9]): 69.9%
Emax at […] (human M1 receptor; MK-4710 concentration […]): 88.8%
EC50 (human M3 receptor; Emraclidine concentration 0 nM): 3270 nM
Emax (human M3 receptor; Emraclidine concentration 0 nM): 97.9%
Emax (human M3 receptor; [1]): 96.7%
Emax (human M3 receptor; [2]): 83.8%
Emax at […] (human M3 receptor; [3]): 87.8%
Emax (human M3 receptor; [4]): 125%
Emax (human M3 receptor; [5]): 83.9%
Emax at […] (human M3 receptor; Emraclidine concentration […]): 77.3%
α (cooperativity, affinity shift) (human M3 receptor; M4 PAM Emraclidine): 1.0
β (cooperativity, efficacy shift) (human M3 receptor; M4 PAM Emraclidine): 1.1
τ (agonist pharmacology) (human M3 receptor; M4 PAM Emraclidine): 0.1
α (cooperativity, affinity shift) (human M3 receptor; M4 PAM MK-4710): 2.1
β (cooperativity, efficacy shift) (human M3 receptor; M4 PAM MK-4710): 0.6
τ (agonist pharmacology) (human M3 receptor; M4 PAM MK-4710): 0.0
EC50 (human M3 receptor; MK-4710 concentration 0 nM): 6360 nM
Emax (human M3 receptor; MK-4710 concentration 0 nM): 118.7%
EC50 (human M3 receptor; MK-4710 concentration 41.2 nM): 7600 nM
Emax (human M3 receptor; [6]): 151%
EC50 (human M3 receptor; MK-4710 concentration 123 nM): 4880 nM
Emax (human M3 receptor; [7]): 137%
EC50 (human M3 receptor; MK-4710 concentration 370 nM): 9670 nM
Emax at […] (human M3 receptor; MK-4710 concentration 370 nM): 163%
EC50 (human M3 receptor; MK-4710 concentration 1110 nM): 11200 nM
Emax (human M3 receptor; [8]): 150%
EC50 (human M3 receptor; MK-4710 concentration 3330 nM): 4110 nM
Emax (human M3 receptor; [9]): 93.1%
EC50 (human M3 receptor; MK-4710 concentration […]): 11500 nM
Emax at […] (human M3 receptor; MK-4710 concentration […]): 159%
Structure (SMILES): CC1OC2(CS1)CN1CCC2CC1 (stereo not shown) [cevimeline, Cevimeline, reference compound]
